Measurements as given in ChEMBL document CHEMBL3832088, “DailyMed|setid=abbf31eb-9966-411a-9c5d-91025ff7a782 | ZARAH- drospirenone and ethinyl estradiol | Watson Pharma, Inc”.
Values joined by “and” are separate entries in the source; they are usually repeats but may differ in a detail not shown here. Equal values may be shown once.

What was measured:
[1] = (§1) Evaluation of pharmacokinetic parameters for Drosporine following multiple co-administration of 3 mg Drosporine tablets and […] ethinyl estradiol to 12 healthy female subjects.; assay type: ADME, organism-based; set-up: dose 3 mg, route oral; conditions: human, in vivo, dose 3 mg, dosed compound id 30, dosed compound name DROSPIRENONE, gender female, regimen Once daily, route oral, study dosing duration 21 days, tissue Serum
Homo sapiens = test: as §1; assay type: ADME, organism-based; set-up: dose 3 mg, route oral; conditions: in vivo, po, dosed compound id 30, dosed compound name DROSPIRENONE, gender female, regimen Once daily, study dosing duration 21 days, tissue Serum
[2] = dose 3 mg, sampling time1 21 day

In the case of C[C@]12CCC(=O)C=C1[C@@H]1C[C@@H]1[C@H]1[C@@H]3[C@@H]4C[C@@H]4[C@@]4(CCC(=O)O4)[C@@]3(C)CC[C@@H]12 [DROSPIRENONE], the Tmax ([1]; sampling time1 1 day) is reported as 1.7 h, the half-life ([1]; sampling time1 21 day) is reported as 32.5 h and the Tmax (Homo sapiens; [2]) is reported as 1.8 h and 1.6 h. For the same compound, the t1/2 (Homo sapiens; [2]) was 31.4 h, the “AUC(0-24)” value (Homo sapiens; sampling time1 1 day) was 288 ng·h/mL and the Cmax (Homo sapiens; sampling time1 1 day) was 36.9 ng/mL. The “AUC(0-24)” value (Homo sapiens; sampling time1 21 day) was 957 ng.hr/mL [middle of 4 runs] and the Cmax (Homo sapiens; sampling time1 21 day) was 84.2 ng/mL [middle of 4 runs].
